# Like-named read-outs stand apart in the source and are kept apart here.
# Experiments:
# [1] = tested on: Barley leaf blotch (Rhynchosporium secalis); test: Anti-bacterial effect on various microorganisms (plate medium), R. sec; assay type: cell-based
# [2] = tested on: Rice bakanae disease (Giberella fujikuroi); test: Anti-bacterial effect on various microorganisms (plate medium), G.f; assay type: cell-based
# [3] = tested on: Wheat pink snow mold (Microdochium nivale); test: Anti-bacterial effect on various microorganisms (plate medium), M.n; assay type: cell-based
# [4] = tested on: Alternaria blotch (Alternaria alternata); test: Anti-bacterial effect on various microorganisms (plate medium), A.m; assay type: cell-based
# [5] = tested on: Rice bacterial seeding blight (Rhizopus oryzae); test: Anti-bacterial effect on various microorganisms (plate medium), R.o; assay type: cell-based
# [6] = tested on: wheat leaf blight-causing microorganisms; test: Anti-bacterial effect on wheat leaf blight-causing microorganisms (PDA plate, mycelial growth inhibition); assay type: cell-based, Septoria tritici; conditions: 1.25 mg/L in PDA plate medium, 25° C., 14 days
# Procedure: In Test Examples, an anti-bacterial effect of a compound in accordance with the present invention on the wheat leaf blight-causing microorganisms was tested, and was compared with the anti-bacterial effect of a comparative compound (1).
# A dimethyl sulfoxide solution (0.6 ml) containing a compound in accordance with the present invention was added to a PDA medium (potato dextrose agar medium) (60 ml) having about 60° C., and the resultant mixture was mixed thoroughly in a 100-ml conical flask. The mixture was poured into a dish, and was solidified. […]
# On the other hand, a subject microorganism previously cultured on a plate medium was cut out with use of a cork borer whose diameter was 4 mm, and the wheat leaf blight-causing microorganism on the plate medium thus cut out was inoculated to the chemical-containing plate medium described above. After such inoculation, the chemical-containing plate medium was incubated at 25° C. for 14 days, and then diameters of its flora were measured. A % mycelial growth inhibition was calculated with use of the formula. R=100(dc−dt)/dc (where R=% mycelial extension inhibition, dc=flora diameter in untreated plate, dt=flora diameter in treated plate)
# The results obtained as described above were evaluated on a five-point scale according to the following criteria.
# • 5: % Mycerial growth inhibition of 80% or higher • 4: % Mycerial growth inhibition of less than 80 to 60% or higher • 3: % Mycerial growth inhibition of less than 60 to 40% or higher • 2: % Mycerial growth inhibition of less than 40 to 20% or higher • 1: % Mycerial growth inhibition of less than 20%
# [7] = tested on: Wheat Septoria nodorum blotch microorganism (Phaeosphaeria nodorum); test: Anti-bacterial effect on various microorganisms (plate medium), P.n; assay type: cell-based
# [8] = tested on: Wheat fusarium blight (Fusarium graminearum); assay type: cell-based
# [9] = tested on: wheat-brown-rust-causing microorganisms; test: Controlling effect on wheat brown rust (spray, pot test); assay type: in vivo, Puccinia recondita; conditions: 1 mg/L sprayed at 1,000 L/ha, wheat NORIN No. 61, 9 to 14 days after inoculation
# Procedure: Onto a wheat plant (cultivar: NORIN No. 61) grown to the two-leaf stage with use of a square plastic pot (6 cm×6 cm), a wettable formulation such as Formulation Example 1 which was diluted and suspended in water at a concentration of 1 mg/L was sprayed at a rate of 1,000 L/ha. The sprayed leaves were air-dried, and inoculated with spore suspension of wheat-brown-rust-causing microorganisms (adjusted at 200 spores/vision, […] was added at 60 ppm) by spraying, and kept at 25° C. and a high humidity for 48 hours. Thereafter, the plant was kept in a greenhouse. Nine to fourteen days after inoculation, the wheat brown rust lesion degree was evaluated. The protective value was calculated by the following equation. Protective value (%)=(1-mean lesion degree in sprayed plot/mean lesion degree in unsprayed plot)×100 [table] [table]
# [10] = tested on: Barley loose smut (Ustilago nuda); test: Anti-bacterial effect on various microorganisms (plate medium), U.n; assay type: cell-based
# [11] = tested on: Cucumber fusarium wilt (Fusarium oxysporum); test: Anti-bacterial effect on various microorganisms (plate medium), F.c; assay type: cell-based
# [12] = tested on: Gray mold (Botritis cinerea); test: Anti-bacterial effect on various microorganisms (plate medium), B.c; assay type: cell-based
# [13] = tested on: Wheat eye spot (Pseudocercoporella herpotrichoides); test: Anti-bacterial effect on various microorganisms (plate medium), P.h; assay type: cell-based
# [14] = tested on: Sclerotinia rot (Sclerotinia sclerotiorum); test: Anti-bacterial effect on various microorganisms (plate medium), S.s; assay type: cell-based
# [15] = tested on: Rice blast (Pyricularia oryzae); assay type: cell-based
compound,measurement,setting,value
"COC[C@]1(CCl)CC[C@@H](Cc2ccc(F)cc2)[C@]1(O)Cn1cncn1 (racemic) [Compound I-170, (1RS,2RS,5SR)-5-(4-fluorobenzyl)-2-chloromethyl-2-methoxymethyl-1H-[1,2,4]triazole-1-ylmethylcyclopentanol]",Growth inhibition grade R. sec,[1]; 1.25 mg/L,5 (% Mycerial growth inhibition of 80% or higher)
same,Growth inhibition grade R. sec,[1]; 5 mg/L,5 (% Mycerial growth inhibition of 80% or higher)
same,Growth inhibition grade G.f,[2]; 1.25 mg/L,5 (% Mycerial growth inhibition of 80% or higher)
same,Growth inhibition grade G.f,[2]; 5 mg/L,5 (% Mycerial growth inhibition of 80% or higher)
same,Growth inhibition grade M.n,[3]; 1.25 mg/L,5 (% Mycerial growth inhibition of 80% or higher)
same,Growth inhibition grade M.n,[3]; 5 mg/L,5 (% Mycerial growth inhibition of 80% or higher)
same,Growth inhibition grade A.m,[4]; 1.25 mg/L,4 (% Mycerial growth inhibition of less than 80 to 60% or higher)
same,Growth inhibition grade A.m,[4]; 5 mg/L,5 (% Mycerial growth inhibition of 80% or higher)
same,Growth inhibition grade R.o,[5]; 1.25 mg/L,5 (% Mycerial growth inhibition of 80% or higher)
same,Growth inhibition grade R.o,[5]; 5 mg/L,5 (% Mycerial growth inhibition of 80% or higher)
same,Growth inhibition grade,[6],5 (% Mycerial growth inhibition of 80% or higher)
same,Growth inhibition grade P.n,[7]; 1.25 mg/L,5 (% Mycerial growth inhibition of 80% or higher)
same,Growth inhibition grade P.n,[7]; 5 mg/L,5 (% Mycerial growth inhibition of 80% or higher)
same,Growth inhibition grade F.g,[8]; 1.25 mg/L,5 (% Mycerial growth inhibition of 80% or higher)
same,Growth inhibition grade F.g,[8]; 5 mg/L,5 (% Mycerial growth inhibition of 80% or higher)
same,Protective value,[9],4 (61 to 80)
same,Growth inhibition grade U.n,[10]; 1.25 mg/L,5 (% Mycerial growth inhibition of 80% or higher)
same,Growth inhibition grade U.n,[10]; 5 mg/L,5 (% Mycerial growth inhibition of 80% or higher)
same,Growth inhibition grade F.c,[11]; 1.25 mg/L,5 (% Mycerial growth inhibition of 80% or higher)
same,Growth inhibition grade F.c,[11]; 5 mg/L,5 (% Mycerial growth inhibition of 80% or higher)
same,Growth inhibition grade B.c,[12]; 1.25 mg/L,5 (% Mycerial growth inhibition of 80% or higher)
same,Growth inhibition grade B.c,[12]; 5 mg/L,5 (% Mycerial growth inhibition of 80% or higher)
same,Growth inhibition grade P.h,[13]; 1.25 mg/L,5 (% Mycerial growth inhibition of 80% or higher)
same,Growth inhibition grade P.h,[13]; 5 mg/L,5 (% Mycerial growth inhibition of 80% or higher)
same,Growth inhibition grade S.s,[14]; 1.25 mg/L,5 (% Mycerial growth inhibition of 80% or higher)
same,Growth inhibition grade S.s,[14]; 5 mg/L,5 (% Mycerial growth inhibition of 80% or higher)
same,Growth inhibition grade P.o,[15]; 1.25 mg/L,5 (% Mycerial growth inhibition of 80% or higher)
same,Growth inhibition grade P.o,[15]; 5 mg/L,5 (% Mycerial growth inhibition of 80% or higher)
